Experimental findings from BindingDB's records for doi:10.1021/jm00119a018 (Southern Research Institute, 1988) are described below.

In the assay the target is Bifunctional purine biosynthesis protein ATIC (Homo sapiens, UniProt P31939). Description: ChEBML_28408. The procedure: Compound was tested for inhibition of AICAR formyltransferase
Sequence of Bifunctional purine biosynthesis protein ATIC (P31939 whole entry): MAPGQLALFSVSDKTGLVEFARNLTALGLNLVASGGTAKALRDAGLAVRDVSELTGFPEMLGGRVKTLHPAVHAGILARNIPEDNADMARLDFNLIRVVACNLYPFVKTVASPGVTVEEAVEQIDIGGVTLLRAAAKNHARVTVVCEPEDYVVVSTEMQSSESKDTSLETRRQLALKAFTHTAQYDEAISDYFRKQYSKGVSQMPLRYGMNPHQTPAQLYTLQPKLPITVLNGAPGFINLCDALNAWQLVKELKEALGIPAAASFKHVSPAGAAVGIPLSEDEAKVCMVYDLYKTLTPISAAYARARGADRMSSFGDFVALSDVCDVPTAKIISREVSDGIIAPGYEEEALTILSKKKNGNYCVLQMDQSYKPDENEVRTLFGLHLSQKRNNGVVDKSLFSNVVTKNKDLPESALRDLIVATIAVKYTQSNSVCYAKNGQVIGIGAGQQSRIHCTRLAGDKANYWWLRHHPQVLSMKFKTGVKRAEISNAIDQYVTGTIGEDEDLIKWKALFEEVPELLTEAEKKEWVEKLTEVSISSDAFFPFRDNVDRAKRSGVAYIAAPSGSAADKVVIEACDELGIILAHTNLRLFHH

In general, IC50 refers to the concentration that inhibits the measured activity by half. A higher IC50 goes with a need for much substance. As to `CC1c2c(nc(N)[nH]c2=O)NCC1CCc1ccc(C(=O)NC(CCC(=O)O)C(=O)O)cc1` (stereo not drawn) [(5RS, 6RS) 2-{4-[2-(2-Amino-5-methyl-4-oxo-3,4,5,6,7,8-hexahydro-pyrido[2,3-d]pyrimidin-6-yl)-ethyl]-benzoylamino}-pentanedioic acid], the IC50 is greater than 20 µM.
